Experimental data from patent US11439619B2, “Phosphaplatin compounds as immuno-modulatory agents and therapeutic uses thereof” (Phosplatin Therapeutics Inc., priority 2017, dated 2022).

How the values were obtained:
[1] = test system: HCT116 colorectal cancer cell line; assay: HMGB1 release from HCT116 cells, ELISA; format: cell-based; conditions: HCT116, IC50 concentrations, 48 hours
Experimental: FIG. 1 illustrates the release of high mobility group box 1 (HMGB1) from cells treated with PT-112. HMGB1 in the media of cells after 48 hours of drug treatment was measured via ELISA. HMGB1 release is involved in ICD and antigen presentation to dendritic cells. Error bars indicate 1 SEM, and p values were generated using two-tailed t-tests.
(§1) Two such DAMPs are high mobility group box 1 (HMGB1) and calreticulin (CRT). HMGB1 is released from dying cells during ICD, whereas CRT migrates from the endoplasmic reticulum to the cell surface during ICD. To test if PT-112 exposure results in these events that are considered hallmarks of ICD, in vitro experiments using the HCT116 colorectal cancer cell line were conducted.
Subsequently, HMGB1 in the media of the cells was measured via ELISA.

[2] = test system: p53 and MDM2; assay: impact on p53 and MDM2 levels; format: cell-based
Description: (§2) A high degree of correlation was observed between cis and carbo activity, but not between those agents and PT-112. A correlation between PT-112 and oxali was also observed, which led to investigation of cellular targets and mechanisms not shared by these two agents. […] These effects comprise the release of HMGB1 and ATP, the cell surface exposure of calreticulin (CRT), and the suppression of STATS.

[3] = test system: CT26 cells; assay: FACS analysis of tumor tissue, CT26 allograft; format: in vivo, mice
Description: (§3) FIG. 6 illustrates fluorescence-activated cell sorting (FACS) analysis of tumor biopsies from a mouse allograft experiment, whereby immune-competent mice were implanted with CT26 cells and were subsequently randomized into control, PT-112, anti-PD-L antibody, or combination treatment. Bars are normalized to the control group.
FIG. 7 illustrates the effect of various treatments on the ratios of different cell populations from tumor biopsies in a mouse allograft experiment using the CT26 cell line, where mice were randomized into vehicle control, PT-112, anti-PD-L antibody, and combination treatment groups. PT-112 treatment groups had large increases in the ratio of immunogenic to immunosuppressive cell types, indicating PT-112 induces a more immunogenic tumor microenvironment.
Additionally, tumor tissue was removed from additional treated mice and analyzed via FACS for differences in white blood cell populations.

[4] = test system: murine TSA cells; assay: ATP release from TSA cells, luminometric assay; format: cell-based; conditions: 48 hours, two concentrations
Experimental: FIG. 3 illustrates the release of adenosine triphosphate (ATP) from cells treated with PT-112. ATP in the media of cells after 48 hours of drug treatment was measured via a luminometric assay. PT-112 was tested in two concentrations, as was cisplatin (a negative control for ICD), in addition to a single concentration of mitoxantrone (a positive ICD control) and an untreated negative control sample. ATP release is indicative of ICD and involved in recruitment and activation of antigen-presenting cells.
PT-112 was also tested for its ability to release the DAMP ATP (FIG. 3), which is involved in the recruitment and activation of antigen-presenting cells. Here, murine TSA cells were exposed to either PT-112 at two different concentrations, cisplatin (a negative control for ICD, also at two concentrations), mitoxantrone (a positive ICD control), or no drug control for 48 hours. Subsequently, ATP in the media was measured via a luminometric assay. […] This is again indicative of PT-112 robustly causing ICD.

[5] = test system: broadly platinum-resistant cell panel; assay: IC50 values in a broadly platinum-resistant cell panel; format: cell-based
Description: as §2

[6] = test system: MC38 cells; assay: FACS analysis of tumor tissue, MC38 allograft; format: in vivo, mice
Description: as §3, with “8” for “6”, “MC38” for “CT26”, “anti-PD-L1” for “anti-PD-L”
FIG. 9 illustrates the effect of various treatments on the ratios of different cell populations from tumor biopsies in a mouse allograft experiment using the MC38 cell line, where mice were randomized into vehicle control, PT-112, anti-PD-L1 antibody, and combination treatment groups. […]
To better understand the effects of the different treatments on T cell populations, additional immuno-competent mice were implanted with MC38 cells and were subsequently randomized into control, PT-112, anti-PD-L1 antibody, or combination treatment arms (n=5). After 2 weeks of treatment (PT-112 @ 90 mg/kg QW and PD-L1 @ 10 mg/kg BIW), tumor tissue was removed and analyzed via FACS for differences in white blood cell populations. […]
Not all white blood cell populations are immunogenic. […] To better understand if the changes observed would have a net immunogenic or immunosuppressive effect, ratios of different cell populations were calculated (FIG. 9).

[7] = test system: CXF280 colon PDX; assay: CXF280 colon PDX model; format: in vivo
[8] = set-up: species or system rats; conditions: rat, in vivo
Description: Importantly, Pt in plasma, but not present in the PUF, is believed to be protein-bound and not bioavailable for therapeutic benefit.

[9] = test system: PANC1 pancreatic cancer model; assay: PANC1 pancreatic cancer model; format: in vivo
[10] = mouse model of acute neurotoxicity (cold hypersensitivity); format: in vivo; conditions: single dose, PT-112 at twice the molar concentration of oxali
[11] = test system: nucleotide excision repair (NER)-deficient HCT116 cells and their isogenic NER-proficient counterparts; assay: potency in NER-deficient versus NER-proficient HCT116 cells; format: cell-based
Description: as §2

[12] = test system: GXF97 gastric patient-derived xenograft; assay: GXF97 gastric patient-derived xenograft (PDX) model; format: in vivo; conditions: higher doses not tolerated by all mice, data not shown
[13] = chronic neuropathy indicators after repeat doses over 4 weeks (DRG Pt, NCV); format: in vivo
[14] = test system: cancer cell models; assay: Pt accumulation in DNA and whole cell extracts of cancer cell models; format: cell-based; conditions: previous work; compared with cisplatin or oxaliplatin exposure
Description: PT-112 is a new chemical entity under clinical development in the US and the People's Republic of China, designed to minimize particular toxicities associated with traditional platinum agents and drug resistance stemming from DNA damage and repair. As a pyrophosphate-conjugated Pt-containing anti-neoplastic therapeutic, PT-112 differs from platinum therapies in both mechanism and toxicity. […] Nonetheless, PT-112 has potent cytotoxic activity in in vitro systems, implying a different spectrum of targets for PT-112 in comparison to traditional platinum compounds. We explored the activity and mechanism of action of PT-112 by investigating impacts on cancer related proteins and pathways, including those connected to immunogenic cell death (ICD), as well as how PT-112 potency is affected by DNA repair pathways. In addition, PT-112 anticancer activity, pharmacokinetics (PK), and toxicity were measured in multiple in vivo systems.

[15] = renal function and tolerability in rats; format: in vivo
[16] = test system: HCT116 colon cancer model; assay: phosphorylation of H2AX and induction of Ku70 in HCT116 colon cancer model; format: cell-based; conditions: versus oxali at equipotent concentrations
Description: as §2

[17] = test system: HCT116 colorectal cancer cell line; assay: calreticulin (CRT) cell surface exposure in HCT116 cells, flow cytometry; format: cell-based; conditions: HCT116, IC50 concentrations, 48 hours
Experimental: FIG. 2 illustrates the cell surface exposure of calreticulin (CRT) from cells treated with PT-112. CRT cell surface expression was measured via flow cytometry after 48 hours of drug treatment. A peak present to the right of the main peak indicates cells staining positive for CRT, a hallmark of ICD and an indicator of phagocyte targeting.
as §1
Cells were then stained with an anti-CRT antibody, and positive staining was detected via flow cytometry.

[18] = test system: immunogenic cell death (ICD); assay: effects indicative of ICD induction versus oxali; format: cell-based; conditions: compared with oxali
Description: as §2

[19] = test system: live tumor cells; assay: vaccination experiment with live tumor cell challenge; format: in vivo, mice; conditions: vaccine from agent-killed cells
Experimental: FIG. 4 illustrates the survival advantage conferred when different vaccines are given to mice before being challenged with a live tumor cell injection. Vaccines are composed of dead and dying cancer cells of the same cell line exposed to different anti-cancer agents, killed by exposure to different agents.
The “gold standard” for ICD validation is a vaccine experiment, where mice are injected with dead cell material generated by exposing cells to an anticancer agent. Importantly, the anti-cancer agent is removed, and the mice are only injected with the dead and dying cells. Subsequently, after 1-2 weeks, mice are then challenged with an injection of live tumor cells of the same type used to create the vaccine.
This vaccination experiment was conducted using four different treatment groups, one unvaccinated negative control, and three receiving vaccines from the use of different agents: cisplatin (a negative control, non-ICD inducer), mitoxantrone (a positive control ICD inducer), and PT-112 (the experimental arm) (FIG. 4). The vast majority of mice (80-90%) in both negative control groups developed tumors rapidly (within one week).

[20] = data from the literature; cited from earlier work

O=P1(O)OP(=O)(O)[O][Pt]2([NH][C@@H]3CCCC[C@H]3[NH]2)[O]1 (stereo partly drawn) [PT-112, trans-(R,R)-1,2-cyclohexanediamine(pyrophosphato) platinum(II)]
HMGB1 release into the media [1]: significantly higher | impact on p53 and MDM2 levels [2]: noteworthy impact | changes in cytotoxic T cell (CD8+) and helper T cell (CD4+) populations in tumor [3]: large changes | ratio of immunogenic to immunosuppressive T cell populations [3]: favorable changes | release of ATP into the media [4]: robust release of ATP | IC50 values compared with cis, carbo and oxali [5]: superior to cis, carboplatin (carbo), and oxali in a majority of cell lines | changes in white blood cell populations incl. cytotoxic T cells (CD8+) and helper T cells (CD4+) in tumor ([6]; MC38, 2 weeks, PT-112 90 mg/kg QW, PD-L1 10 mg/kg BIW, FACS): large changes | ratios of helper T cells and cytotoxic T cells to regulatory T cells ([6]; MC38, FACS): positive effects | tumor growth [7]: Sustained tumor growth delay | fraction of Pt in the plasma ultrafiltrate (PUF) relative to total plasma Pt [8]: 72.8% | stability in plasma (parent by LC-MS/MS) [8]: stability of PT-112 in plasma | tumor growth [9]: Sustained tumor growth delay | cold hypersensitivity [10]: indistinguishable from untreated controls | potency difference between NER-deficient and NER-proficient HCT116 cells [11]: did not differ significantly | response at higher doses [12]: Cases of complete response were observed | accumulation of Pt in dorsal root ganglia (DRG) nerve tissue [13]: minimal accumulation | nerve conduction velocity (NCV) [13]: no significant loss | Pt accumulation in DNA and whole cell extracts [14]: significantly less Pt accumulation | tolerated concentration relative to cis ([15]; rats): 7 fold | effects on renal function (creatinine, BUN and GFR) ([15]; rats, PT-112 at 7-fold higher concentrations than cis): minimal effects | effect on induction of Ku70 [16]: minimal effect | effect on the phosphorylation of H2AX [16]: minimal effect | anti-CRT antibody staining (cell surface CRT) [17]: greater effect | effects indicative of ICD induction (release of HMGB1 and ATP, cell surface exposure of CRT, suppression of STATS) [18]: significantly greater extent than oxali

N.N.[Cl][Pt][Cl] [cisplatin, reference compound]
potency difference between NER-deficient and NER-proficient HCT116 cells [11]: NER-competent cells were less sensitive | effects on renal function (creatinine, BUN and GFR) ([15]; rat, in vivo): caused morbidity | mice that developed tumors ([19]; within one week): 80-90%

O=C1[O][Pt]2([NH][C@@H]3CCCC[C@H]3[NH]2)[O]C1=O [oxaliplatin, reference compound]
HMGB1 release into the media [1]: elevated levels of HMGB1 in the media versus untreated control cells | fraction of Pt in the plasma ultrafiltrate (PUF) [20]: 28.2% | nerve conduction velocity (NCV) [13]: dose-dependent declines | anti-CRT antibody staining (cell surface CRT) [17]: enhanced staining relative to control

O=C1c2c(O)ccc(O)c2C(=O)c2c(NCCNCCO)ccc(NCCNCCO)c21 [mitoxantrone]
mice remaining tumor free ([19]; PT-112 group for over one month): 40%
